We go through 1 compound from ChEMBL document CHEMBL5107949, “Design, synthesis, and antibacterial activity of N-(trifluoromethyl)phenyl substituted pyrazole derivatives” (RSC Med Chem, 2021).

In this assay the test system is Staphylococcus aureus. Description: Inhibition of lipid synthesis in Staphylococcus aureus ATCC 29213 at 8 times MIC preincubated for 30 mins followed by [3H]-glycerol and measured after 50 mins by [3H]-glycerol incorporation based beta scintillation counter analysis. It counts as functional. The following applies: time 80 min; 1.333 h.

Take `C/C=C/C/C=C/CCC(=O)[C@H]1O[C@H]1C(N)=O` [CERULENIN]: the “inhibition (INH)” value was determined as 71.9%.
